Experimental data reported in article PMC4925160, “Mode of action of DNA-competitive small molecule inhibitors of tyrosyl DNA phosphodiesterase 2” (Biochemical Journal, 2016).

Target: T1, tyrosyl-DNA phosphodiesterase 2 (hTDP2-CAT) (Homo sapiens, UniProt O95551, C273S)
T1 construct: gene TDP2; catalytic domain, residues 113–362
T1 sequence (O95551 113-362 C273S): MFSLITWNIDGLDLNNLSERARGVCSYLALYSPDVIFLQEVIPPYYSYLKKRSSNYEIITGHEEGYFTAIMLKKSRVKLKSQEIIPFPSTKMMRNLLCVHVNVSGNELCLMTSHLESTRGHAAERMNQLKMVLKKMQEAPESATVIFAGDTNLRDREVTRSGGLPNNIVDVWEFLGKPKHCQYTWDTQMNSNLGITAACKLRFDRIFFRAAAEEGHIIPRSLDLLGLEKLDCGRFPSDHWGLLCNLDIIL
Test: fluorescence-based […]'-phosphotyrosyl oligonucleotide enzyme assay
Type: biochemical

## N#Cc1ccc2cc3c(=O)[nH]c(=O)nc-3n(-c3cccc(CO)c3)c2c1 [compound 149, 149]
  IC50: 489 nM
